Assay results: article PMC9516332 (Frontiers in Oncology, 2022)
Like-named read-outs stand apart in the source and are kept apart here. One block for each compound: values may come before it.

Columns and labels:
Assay in all cases: Kinase panel profiling at 1 µmol/L (MSA or IMAP), percentage inhibition
Format in all cases: biochemical
[1] = biological target: panel of 255 wild-type kinases (Homo sapiens, UniProt Q96SB4); settings: read-out: %-inhibition at 1 µmol/L, SRPK1
[2] = biological target: panel of 255 wild-type kinases (Homo sapiens, UniProt P06239); settings: read-out: %-inhibition at 1 µmol/L, LCK
[3] = biological target: panel of 255 wild-type kinases (Homo sapiens, UniProt O43683); settings: read-out: %-inhibition BUB1/BUB3
[4] = biological target: panel of 255 wild-type kinases (Homo sapiens, UniProt P06241); settings: read-out: %-inhibition at 1 µmol/L, FYN [isoform a]
[5] = biological target: panel of 255 wild-type kinases (Homo sapiens, UniProt P11362); settings: read-out: %-inhibition at 1 µmol/L, FGFR1
[6] = biological target: panel of 255 wild-type kinases (Homo sapiens, UniProt Q00534); settings: read-out: %-inhibition CDK6/CycD3
[7] = biological target: panel of 255 wild-type kinases (Homo sapiens, UniProt Q9UK32); settings: read-out: %-inhibition at 1 µmol/L, RSK4
[8] = biological target: panel of 255 wild-type kinases (Homo sapiens, UniProt Q14680); settings: read-out: %-inhibition, MELK
[9] = biological target: panel of 255 wild-type kinases (Homo sapiens, UniProt P04626); settings: read-out: %-inhibition at 1 µmol/L, HER2
[10] = biological target: panel of 255 wild-type kinases (Homo sapiens, UniProt Q8N568); settings: read-out: %-inhibition at 1 µmol/L, DCAMKL2
[11] = biological target: panel of 255 wild-type kinases (Homo sapiens, UniProt P27361); settings: read-out: %-inhibition at 1 µmol/L, Erk1
[12] = biological target: panel of 255 wild-type kinases (Homo sapiens, UniProt Q9P286); settings: read-out: %-inhibition, PAK5
[13] = biological target: panel of 255 wild-type kinases (Homo sapiens, UniProt P49840); settings: read-out: %-inhibition at 1 µmol/L, GSK3α
[14] = biological target: panel of 255 wild-type kinases (Homo sapiens, UniProt Q15375); settings: read-out: %-inhibition at 1 µmol/L, EPHA7
[15] = biological target: panel of 255 wild-type kinases (Homo sapiens, UniProt O96017); settings: read-out: %-inhibition CHK2
[16] = biological target: panel of 255 wild-type kinases (Homo sapiens, UniProt O75676); settings: read-out: %-inhibition, MSK2
[17] = biological target: panel of 255 wild-type kinases (Homo sapiens, UniProt Q04912); settings: read-out: %-inhibition at 1 µmol/L, RON
[18] = biological target: panel of 255 wild-type kinases (Homo sapiens, UniProt P49761); settings: read-out: %-inhibition at 1 µmol/L, CLK3
[19] = biological target: panel of 255 wild-type kinases (Homo sapiens, UniProt Q8TDX7); settings: read-out: %-inhibition, NEK7
[20] = biological target: T1, panel of 255 wild-type kinases (Homo sapiens, UniProt Q9UQB9); settings: read-out: %-inhibition AurC
T1 sequence (Q9UQB9 1-309): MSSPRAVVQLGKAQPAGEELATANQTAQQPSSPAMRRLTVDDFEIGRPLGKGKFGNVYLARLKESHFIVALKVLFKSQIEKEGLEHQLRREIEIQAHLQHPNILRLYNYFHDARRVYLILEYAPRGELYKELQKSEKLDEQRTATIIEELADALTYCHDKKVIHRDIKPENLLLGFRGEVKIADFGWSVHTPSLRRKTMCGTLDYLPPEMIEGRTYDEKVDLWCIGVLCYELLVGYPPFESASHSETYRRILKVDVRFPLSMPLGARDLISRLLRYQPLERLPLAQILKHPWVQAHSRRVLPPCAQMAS

[21] = biological target: panel of 255 wild-type kinases (Homo sapiens, UniProt P22455); settings: read-out: %-inhibition at 1 µmol/L, FGFR4
[22] = biological target: panel of 255 wild-type kinases (Homo sapiens, UniProt Q08345); settings: read-out: %-inhibition at 1 µmol/L, DDR1
[23] = biological target: panel of 255 wild-type kinases (Homo sapiens, UniProt P48730); settings: read-out: %-inhibition at 1 µmol/L, CK1δ
[24] = kinase SRPK1, 1 µmol/L single concentration
[25] = kinase LCK, 1 µmol/L single concentration
[26] = BUB1/BUB3 kinase assay, 1 µmol/L single concentration
[27] = kinase FYN [isoform a], 1 µmol/L single concentration
[28] = kinase FGFR1, 1 µmol/L single concentration
[29] = CDK6/CycD3 kinase assay, 1 µmol/L single concentration
[30] = kinase RSK4, 1 µmol/L single concentration
[31] = MELK, 1 µmol/L single concentration
[32] = kinase HER2, 1 µmol/L single concentration
[33] = kinase DCAMKL2, 1 µmol/L single concentration
[34] = kinase Erk1, 1 µmol/L single concentration
[35] = PAK5, 1 µmol/L single concentration
[36] = kinase GSK3α, 1 µmol/L single concentration
[37] = kinase EPHA7, 1 µmol/L single concentration
[38] = CHK2 kinase assay, 1 µmol/L single concentration
[39] = MSK2, 1 µmol/L single concentration
[40] = kinase RON, 1 µmol/L single concentration
[41] = kinase CLK3, 1 µmol/L single concentration
[42] = NEK7, 1 µmol/L single concentration
[43] = AurC kinase assay, 1 µmol/L single concentration
[44] = kinase FGFR4, 1 µmol/L single concentration
[45] = kinase DDR1, 1 µmol/L single concentration
[46] = kinase CK1δ, 1 µmol/L single concentration

inhibition at 1 µM [1, 24]: 4%
inhibition at 1 µM [2, 25]: 7%
inhibition at 1 µM [3, 26]: -3.41%
inhibition at 1 µM [4, 27]: 0.67%
inhibition at 1 µM [5, 28]: -0.103%
inhibition at 1 µM [6, 29]: 1.75%
inhibition at 1 µM [7, 30]: -5%
inhibition at 1 µM [8, 31]: 2.43%
inhibition at 1 µM [9, 32]: 19%
inhibition at 1 µM [10, 33]: 7.51%
inhibition at 1 µM [11, 34]: 2.77%
inhibition at 1 µM [12, 35]: -1%
inhibition at 1 µM [13, 36]: -1.9%
inhibition at 1 µM [14, 37]: -2.14%
inhibition at 1 µM [15, 38]: -3.49%
inhibition at 1 µM [16, 39]: -1.39%
inhibition at 1 µM [17, 40]: 8%
inhibition at 1 µM [18, 41]: 1.78%
inhibition at 1 µM [19, 42]: -0.791%
inhibition at 1 µM [20, 43]: 10%
inhibition at 1 µM [21, 44]: 5%
inhibition at 1 µM [22, 45]: 6%
inhibition at 1 µM [23, 46]: -4.49%
Compound: C[C@H](Nc1ncnc2nc[nH]c12)c1cc2cccc(Cl)c2c(=O)n1-c1ccccc1 [duvelisib]

Compound: CNC(=O)c1ccc(-c2cnc3ncc(Cc4ccc5ncccc5c4)n3n2)cc1F [capmatinib]
inhibition at 1 µM [1]: -6%
inhibition at 1 µM [2]: 4.23%
inhibition at 1 µM [3]: 1.44%
inhibition at 1 µM [4]: -2%
inhibition at 1 µM [5]: -0.662%
inhibition at 1 µM [6]: -1.65%
inhibition at 1 µM [7]: 8%
inhibition at 1 µM [8]: -4%
inhibition at 1 µM [9]: 9%
inhibition at 1 µM [10]: -1.61%
inhibition at 1 µM [11]: 2.84%
inhibition at 1 µM [12]: 0.765%
inhibition at 1 µM [13]: -0.492%
inhibition at 1 µM [14]: -0.309%
inhibition at 1 µM [15]: -1.52%
inhibition at 1 µM [16]: 1.25%
inhibition at 1 µM [17]: 13%
inhibition at 1 µM [18]: 8%
inhibition at 1 µM [19]: -9%
inhibition at 1 µM [20]: -4.72%
inhibition at 1 µM [21]: 8%
inhibition at 1 µM [22]: -2.22e-14%
inhibition at 1 µM [23]: -1.78%

Compound: FC(F)(F)c1ccc(CNc2ccc(Cc3c[nH]c4ncc(Cl)cc34)cn2)cn1 [pexidartinib]
inhibition at 1 µM [1, 24]: -20%
inhibition at 1 µM [2, 25]: 51%
inhibition at 1 µM [3, 26]: 5.7%
inhibition at 1 µM [4, 27]: -9%
inhibition at 1 µM [5, 28]: 45%
inhibition at 1 µM [6, 29]: -6.52%
inhibition at 1 µM [7, 30]: 24%
inhibition at 1 µM [8, 31]: 3%
inhibition at 1 µM [9, 32]: 6%
inhibition at 1 µM [10, 33]: 3.25%
inhibition at 1 µM [11, 34]: 2.66%
inhibition at 1 µM [12, 35]: 7%
inhibition at 1 µM [13, 36]: 3%
inhibition at 1 µM [14, 37]: 6.38%
inhibition at 1 µM [15, 38]: 11%
inhibition at 1 µM [16, 39]: 4.45%
inhibition at 1 µM [17, 40]: 23%
inhibition at 1 µM [18, 41]: 18%
inhibition at 1 µM [19, 42]: -2.52%
inhibition at 1 µM [20, 43]: 68%
inhibition at 1 µM [21, 44]: 7.42%
inhibition at 1 µM [22, 45]: 84%
inhibition at 1 µM [23, 46]: -3.46%

inhibition at 1 µM [1, 24]: -12%
inhibition at 1 µM [2, 25]: 1.14%
inhibition at 1 µM [3, 26]: -6%
inhibition at 1 µM [4, 27]: 1.82%
inhibition at 1 µM [5, 28]: -2%
inhibition at 1 µM [6, 29]: -0.0563%
inhibition at 1 µM [7, 30]: -7%
inhibition at 1 µM [8, 31]: -1.52%
inhibition at 1 µM [9, 32]: -2.32%
inhibition at 1 µM [10, 33]: 0.701%
inhibition at 1 µM [11, 34]: -14%
inhibition at 1 µM [12, 35]: -0.213%
inhibition at 1 µM [13, 36]: -6.65%
inhibition at 1 µM [14, 37]: -0.152%
inhibition at 1 µM [15, 38]: 3.46%
inhibition at 1 µM [16, 39]: -3.36%
inhibition at 1 µM [17, 40]: 2.82%
inhibition at 1 µM [18, 41]: -3.43%
inhibition at 1 µM [19, 42]: 0.263%
inhibition at 1 µM [20, 43]: -0.0475%
inhibition at 1 µM [21, 44]: 6%
inhibition at 1 µM [22, 45]: 41%
inhibition at 1 µM [23, 46]: -8%
Compound: O=C(Nc1cnn2ccc(N3CCC[C@@H]3c3cc(F)ccc3F)nc12)N1CC[C@H](O)C1 [larotrectinib]

Compound: CCc1nc(C(N)=O)c(Nc2ccc(N3CCC(N4CCN(C)CC4)CC3)c(OC)c2)nc1NC1CCOCC1 [gilteritinib]
inhibition at 1 µM [1, 24]: -8%
inhibition at 1 µM [2, 25]: 97%
inhibition at 1 µM [3, 26]: 54%
inhibition at 1 µM [4, 27]: 84%
inhibition at 1 µM [5, 28]: 55%
inhibition at 1 µM [6, 29]: 4%
inhibition at 1 µM [7, 30]: 44%
inhibition at 1 µM [8, 31]: 75%
inhibition at 1 µM [9, 32]: 15%
inhibition at 1 µM [10, 33]: 11%
inhibition at 1 µM [11, 34]: 1.85%
inhibition at 1 µM [12, 35]: 92%
inhibition at 1 µM [13, 36]: 7.48%
inhibition at 1 µM [14, 37]: 79%
inhibition at 1 µM [15, 38]: 75%
inhibition at 1 µM [16, 39]: 6%
inhibition at 1 µM [17, 40]: 98%
inhibition at 1 µM [18, 41]: 7%
inhibition at 1 µM [19, 42]: -2%
inhibition at 1 µM [20, 43]: 41%
inhibition at 1 µM [21, 44]: 15%
inhibition at 1 µM [22, 45]: 99%
inhibition at 1 µM [23, 46]: 25%
